Source: patent publication US20170137410A1, “FUSED CYCLOALKYL-PYRIMIDINE COMPOUNDS AND USES THEREOF” (Medivation Technologies, Inc., priority 2014, published 2017)

Assays:
activated IGF-1R = biological target: T1, activated IGF-1R (Homo sapiens, UniProt P08069); assay: In vitro IGF-1R enzymatic assay (ADP-Glo); type: biochemical; details: ATP 100 μM
T1 construct: purchased Millipore 14-802
Protocol: Inhibition of IGF-1R and IR kinases by compounds described herein were tested. The IC50 values were measured in vitro using an ADP-Glo kinase assay Kit (Promega). For the IGF-1R assay, active recombinant IGF-1R (Millipore #14-802) was used at 1 ng/reaction, the substrate IGF-1R tide (Millipore #12-527) was used at 125 μM and ATP was used at 100 μM. For the IR assay, active recombinant IR (Millipore #14-803) was used at 1 ng/reaction, the substrate Axl tide (Millipore #12-516) was used at 125 μM and ATP at 50 μM. Kinase reactions in both assays were conducted at 30° C. for 20 min with increasing concentrations of the test compounds.
The assay results as the percent inhibition of binding are presented in Tables B2 and B3 for IGF-1R and IR respectively.

FLT3 = biological target: T2, FLT3 (Homo sapiens, UniProt P36888); assay: HotSpot kinase assay against FLT3; type: biochemical; details: HotSpot 33P assay, ATP 10 μM
T2 sequence (P36888 27-993): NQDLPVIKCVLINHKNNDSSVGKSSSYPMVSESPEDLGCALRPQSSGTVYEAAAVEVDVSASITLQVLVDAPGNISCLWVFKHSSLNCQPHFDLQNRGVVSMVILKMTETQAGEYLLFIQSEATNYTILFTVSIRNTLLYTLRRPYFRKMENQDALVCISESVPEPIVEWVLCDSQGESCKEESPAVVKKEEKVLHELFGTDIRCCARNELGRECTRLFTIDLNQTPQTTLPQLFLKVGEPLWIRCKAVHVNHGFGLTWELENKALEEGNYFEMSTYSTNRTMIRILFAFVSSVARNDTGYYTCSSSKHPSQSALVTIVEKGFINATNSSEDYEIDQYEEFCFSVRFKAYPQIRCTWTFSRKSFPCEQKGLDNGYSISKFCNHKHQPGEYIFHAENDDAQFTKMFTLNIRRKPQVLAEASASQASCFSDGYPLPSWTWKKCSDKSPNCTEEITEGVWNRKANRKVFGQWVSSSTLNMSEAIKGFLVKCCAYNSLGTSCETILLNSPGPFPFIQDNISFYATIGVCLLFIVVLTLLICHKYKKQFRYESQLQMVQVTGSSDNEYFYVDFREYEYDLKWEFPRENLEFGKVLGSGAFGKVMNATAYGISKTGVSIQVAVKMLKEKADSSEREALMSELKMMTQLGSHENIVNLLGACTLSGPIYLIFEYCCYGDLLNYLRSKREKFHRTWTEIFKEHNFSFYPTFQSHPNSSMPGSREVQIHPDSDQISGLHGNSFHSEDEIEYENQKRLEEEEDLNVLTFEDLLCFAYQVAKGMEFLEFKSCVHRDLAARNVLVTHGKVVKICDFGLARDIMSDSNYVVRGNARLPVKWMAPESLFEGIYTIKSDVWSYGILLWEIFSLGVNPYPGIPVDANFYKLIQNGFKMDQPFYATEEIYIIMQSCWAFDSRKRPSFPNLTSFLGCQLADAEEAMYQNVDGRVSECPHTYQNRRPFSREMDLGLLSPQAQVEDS
Protocol: Kinase assays were performed using test compounds against a panel of FLT3 kinases: FLT3; FLT3 (D835Y); and FLT3 (ITD). Compounds were prepared as 10 mM stock solutions in DMSO prior to use in the assay. Each compound was tested at 10 concentrations with three-fold serial dilution starting at 1 μM against the three kinases. The control compound, staurosporine, was tested at 10 concentrations with four-fold serial dilution starting at 20 μM. IC50 values and curve fits were obtained using Prism (GraphPad Software). The screening was performed using the “HotSpot” assay platform. The assay measures the conversion of a peptide substrate to ^33P-labelled phosphorylated product. Briefly, specific kinase/substrate pairs along with required cofactors were prepared in reaction buffer. Specifically, the substrate was prepared in reaction buffer (20 mM Hepes, pH 7.5; 10 mM MgCl2; 1 mM EGTA; 0.02% Brij35; 0.02 mg/mL BSA; 0.1 mM Na3VO4; 2 mM DTT; 1% DMSO), followed by delivery of any required cofactor to the resulting substrate solution. The corresponding kinase was delivered into the substrate solution and the reaction mixture was mixed gently. Compound was delivered into the reaction mixture, followed 15-20 min later by addition of a mixture of ATP (Sigma, St. Louis Mo.) and ^33P ATP (specific activity 0.01 μCi/μL final; Perkin Elmer, Waltham, Mass.) to a final concentration of 10 μM to initiate the reaction. Reactions were carried out at RT for 120 min, followed by spotting of the reactions onto P81 ion exchange filter paper (Whatman #3698-915; Whatman Inc., Piscataway, N.J.). Unbound phosphate was removed by extensive washing of filters in 0.75% phosphoric acid. […] The percent of enzyme inhibition was calculated based on the percent of remaining kinase activity. IC50 values were determined.

T1 sequence (P08069 31-1367): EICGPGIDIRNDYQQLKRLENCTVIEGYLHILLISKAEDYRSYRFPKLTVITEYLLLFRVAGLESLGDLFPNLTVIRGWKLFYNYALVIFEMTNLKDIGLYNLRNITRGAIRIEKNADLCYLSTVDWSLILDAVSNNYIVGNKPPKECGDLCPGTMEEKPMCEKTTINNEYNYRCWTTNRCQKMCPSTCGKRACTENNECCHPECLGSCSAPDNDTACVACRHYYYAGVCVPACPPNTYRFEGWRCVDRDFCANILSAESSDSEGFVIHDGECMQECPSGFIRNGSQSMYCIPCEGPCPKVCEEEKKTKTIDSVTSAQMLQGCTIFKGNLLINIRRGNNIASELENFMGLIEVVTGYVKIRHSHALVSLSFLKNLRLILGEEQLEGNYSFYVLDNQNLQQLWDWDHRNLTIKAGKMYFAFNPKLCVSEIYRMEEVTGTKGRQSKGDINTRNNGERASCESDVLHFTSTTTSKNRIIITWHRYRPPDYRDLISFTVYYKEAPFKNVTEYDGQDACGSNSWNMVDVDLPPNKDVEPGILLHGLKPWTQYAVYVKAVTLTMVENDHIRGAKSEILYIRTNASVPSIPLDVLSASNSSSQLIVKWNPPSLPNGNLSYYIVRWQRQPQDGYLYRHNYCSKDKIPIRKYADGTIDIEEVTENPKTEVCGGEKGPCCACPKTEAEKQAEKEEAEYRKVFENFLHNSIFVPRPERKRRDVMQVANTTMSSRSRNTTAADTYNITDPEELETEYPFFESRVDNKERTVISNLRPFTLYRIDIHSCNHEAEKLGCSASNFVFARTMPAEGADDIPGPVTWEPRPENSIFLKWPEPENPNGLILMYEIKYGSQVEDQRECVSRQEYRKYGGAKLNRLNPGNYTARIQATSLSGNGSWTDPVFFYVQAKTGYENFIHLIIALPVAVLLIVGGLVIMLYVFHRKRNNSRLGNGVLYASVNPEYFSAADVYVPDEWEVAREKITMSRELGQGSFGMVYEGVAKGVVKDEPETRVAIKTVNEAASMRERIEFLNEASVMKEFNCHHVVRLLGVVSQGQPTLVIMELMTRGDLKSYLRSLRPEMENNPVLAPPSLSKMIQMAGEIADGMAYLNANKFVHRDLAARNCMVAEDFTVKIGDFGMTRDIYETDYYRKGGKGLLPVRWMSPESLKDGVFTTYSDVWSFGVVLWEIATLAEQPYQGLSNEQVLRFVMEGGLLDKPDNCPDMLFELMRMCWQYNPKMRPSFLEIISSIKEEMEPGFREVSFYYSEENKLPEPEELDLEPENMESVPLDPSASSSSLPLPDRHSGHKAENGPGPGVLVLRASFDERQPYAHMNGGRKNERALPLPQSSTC

| IC50 (activated IGF-1R) [nM] | IC50 (FLT3) [nM] | inhibition at 1 µM (activated IGF-1R; compound 1 μM) [%] | Compound |
| --- | --- | --- | --- |
| 470 | 155 | – | CCN(C(=O)[C@@H]1CCCN1c1nc2c(c(Nc3cc(C(C)C)[nH]n3)n1)CCC2)c1nccs1 [145b, (S)—N-ethyl-1-(4-((5-isopropyl-1H-pyrazol-3-yl)amino)-6,7-dihydro-5H-cyclopenta[d]pyrimidin-2-yl)-N-(thiazol-2-yl)pyrrolidine-2-carboxamide] |
| 4850 | > 1000 | – | CC(C)(C)c1cc(Nc2nc(N3CCC[C@@H]3C(=O)N3CCC(F)(F)CC3)nc3c2CCC3)n[nH]1 [142a, (R)-(1-(4-((5-(tert-butyl)-1H-pyrazol-3-yl)amino)-6,7-dihydro-5H-cyclopenta[d]pyrimidin-2-yl)pyrrolidin-2-yl)(4,4-difluoropiperidin-1-yl)methanone] |
| 10300 | > 1000 | – | CCN(C(=O)[C@@H]1CCCN1c1nc2c(c(Nc3cc(C(C)(C)C)[nH]n3)n1)CCC2)c1nccs1 [144b, (S)-1-(4-((5-(tert-butyl)-1 H-pyrazol-3-yl)amino)-6,7-dihydro-5H-cyclopenta[d]pyrimidin-2-yl)-N-ethyl-N-(thiazol-2-yl)pyrrolidine-2-carboxamide] |
| > 10000 | > 1000 | – | CC(C)(C)c1cc(Nc2nc(N3CCC[C@H]3C(=O)N3CCC(F)(F)CC3)nc3c2CCC3)n[nH]1 [142b, (S)-(1-(4-((5-(tert-butyl)-1H-pyrazol-3-yl)amino)-6,7-dihydro-5H-cyclopenta[d]pyrimidin-2-yl)pyrrolidin-2-yl)(4,4-difluoropiperidin-1-yl)methanone] |
| 740 | 13.9 | – | CCC(=O)N1CCN(C(=O)[C@H]2CCCN2c2nc3c(c(Nc4cc(C5CCCC5)[nH]n4)n2)CCC3)CC1 [143a, 1-(4-((4-((5-cyclopentyl-1H-pyrazol-3-yl)amino)-6,7-dihydro-5H-cyclopenta[d]pyrimidin-2-yl)-D-prolyl)piperazin-1-yl)propan-1-one] |
| > 30000 | 58 | – | CCC(=O)N1CCN(C(=O)[C@@H]2CCCN2c2nc3c(c(Nc4cc(C5CCCC5)[nH]n4)n2)CCC3)CC1 [143b, (S)-1-(4-((4-((5-cyclopentyl-1H-pyrazol-3-yl)amino)-6,7-dihydro-5H-cyclopenta[d]pyrimidin-2-yl)prolyl)piperazin-1-yl)propan-1-one] |
| > 30000 | 798 | – | CC1(C(=O)N2CCC(F)(F)CC2)CCCN1c1nc2c(c(Nc3cc(C4CCCC4)[nH]n3)n1)CCC2 (racemic) [compound 146, (1-(4-((5-cyclopentyl-1H-pyrazol-3-yl)amino)-6,7-dihydro-5H-cyclopenta[d]pyrimidin-2-yl)-2-methylpyrrolidin-2-yl)(4,4-difluoropiperidin-1-yl)methanone] |
| 243 | 112 | 84 | CC(C)c1cc(Nc2nc(N3CCC[C@H]3C(=O)N(C)c3nccs3)nc3c2CCC3)n[nH]1 [68b, (S)-1-(4-((5-isopropyl-1H-pyrazol-3-yl)amino)-6,7-dihydro-5H-cyclopenta[d]pyrimidin-2-yl)-N-methyl-N-(thiazol-2-yl)pyrrolidine-2-carboxamide] |
